The values that follow come from article PMC2930046 (Archives of biochemistry and biophysics, 2010).

Each structure is given as a SMILES string. Several values for one entry are separate records, joined by “and”; a condition that tells them apart may be missing. Identical values can stand only once. Peptide text beside a SMILES is read from it. * marks the point of attachment. AMC = Cc1cc(=O)oc2cc(N*)ccc12; Cbz = O=C(OCc1ccccc1)*

One data set deals with Mtb proteasome. To be noted: cited from earlier work.
Data set [1] concerns the target T1, Mtb20SOG (Mycobacterium tuberculosis, UniProt P9WHT9). Briefly: Kinetics of inhibition of Mtb20SOG, progress curves of Suc-LLVY-AMC cleavage. The data set is classed as biochemical.
The target in the next data set is human 20S β5 (Homo sapiens, UniProt P28074). The data set is classed as biochemical.
Data set [2] concerns the target T1, Mtb20SOG. The data set is classed as biochemical. The settings on record: retest of screening hits.
Another data set deals with proteasome β5. The settings on record: read-out: IC50 for β5; cited from earlier work.
Data set [3] relates to fibroblasts and glial-derived cells. The settings on record: through inhibition of proteasome activity; cited from earlier work.
Another data set has as its system cancer cells. To be noted: cited from earlier work.
The target of a further data set is mammalian proteasome. To be noted: cited from earlier work.

T1 sequence (P9WHT9 58-291): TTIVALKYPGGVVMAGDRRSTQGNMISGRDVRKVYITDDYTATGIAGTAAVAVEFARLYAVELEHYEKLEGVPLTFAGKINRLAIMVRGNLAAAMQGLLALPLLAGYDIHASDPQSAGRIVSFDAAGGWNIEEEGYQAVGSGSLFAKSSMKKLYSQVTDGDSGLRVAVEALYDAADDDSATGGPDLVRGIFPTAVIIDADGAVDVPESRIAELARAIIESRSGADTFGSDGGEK

As to `CC(=O)NC(CC(N)=O)C(=O)NC(CCC(N)=O)C(=O)NC(CC(C)C)C(=O)Nc1ccc2c(C)cc(=O)oc2c1` (stereo not drawn) [Ac-NQL-AMC] (Ac-Asn-Gln-Leu-{AMC}; configuration not given here), the “hydrolysis by the Mtb proteasome” value in the data set with Mtb proteasome is given as “could not be hydrolyzed”.
A word on the koff: it is the rate constant with which the complex falls apart. By kon is commonly meant a measure of how fast the partners come together. Broadly, the IC50 is the concentration that gives 50% inhibition. Consider `CCCCCCCCC[C@@H](O)CC(=O)N[C@@H](CC(N)=O)C(=O)N[C@@H](CCC(N)=O)C(=O)N[C@H](C=O)CC(C)C` [compound 1, (R)-3-hydroxydodecanoyl-Asn-Gln-Leu-CHO], for which the Ki at Mtb20SOG [1] (Ki calculated from koff/kon, koff/kon) is 7.4 nM; on Mtb20SOG [1] (Ki, Morrison fit of vs/vo vs [1], corrected by (1+[S]/KM), one-step slow binding), 6.8 nM; at Mtb20SOG [1] (Kiapp, apparent, Morrison equation 3, uncorrected) it was 11.1 nM; at human 20S β5 (Ki, initial EI complex, corrected by equation 4, two-step mechanism) it was 11.6 nM and 11.5 nM. Also, the koff at Mtb20SOG [1] (read-out: k4 (koff)) is 0.00096 s⁻¹. For the same compound, the kon at Mtb20SOG [1] (read-out: kon^app (slope of the fit, apparent)) is 79500 M⁻¹ s⁻¹. Moreover, the “advantage on binding affinity of EI* over EI (ΔG = −RTlnK)” value on human 20S β5 turned out to be 1.5 kcal/mol. In addition, the k5/k6 ratio on human 20S β5 was 11. Further, at human 20S β5 (from k5/k6 ratio), the “distribution of enzyme into EI*” value was determined as 91%. Also, the “inhibition of Mtb20SOG on retest with re-supplied compound” value against Mtb20SOG [2] was “dose-dependent inhibition”. The IC50 with proteasome β5 was 9.6 nM. Also, the “release of nerve growth factor” value in data set [3] is on record as “induce the release of nerve growth factor”. Besides, the “cytotoxicity to cancer cells” value in the data set with cancer cells is listed as “cytotoxic to cancer cells”.
With `CC(C)C[C@@H](C=O)NC(=O)[C@H](CC(C)C)NC(=O)[C@H](CC(C)C)NC(=O)OCc1ccccc1` [Z-Leu-Leu-Leu-Cho] (Cbz-Leu-Leu-Leu-aldehyde), the Ki on mammalian proteasome is 4 nM.
